Laboratory results from patent US20100330200A1, “COMBINATION OF A RETINOID AND A PLATINUM ANTICANCER AGENT” (SIGMA-TAU INDUSTRIE FARMACEUTICHE RIUNITE S.P.A., priority 2006, published 2010).
Where “and” joins values, the source holds several entries; their conditions need not be identical. Identical values can stand only once. Like-named read-outs stand apart in the source and are kept apart here.

How the values were obtained:
[1] = system: 1A9PTX22; conditions: for LCK (gross log10 cell kill) / TVI % Obs.: 1A9PTX22 s.c.
Text: (§1) Drug treatment started at different tumor sizes.
(§2) Cisplatin was delivered intravenously every seventh day for three times (q7d×3).
(§3) For statistical comparison of tumor volumes in treated vs. control mice the Student's t test (two-sided) was used.

[2] = system: A2780 ovarian carcinoma; conditions: for LCK (gross log10 cell kill) / TVI % Obs.: A2780 s.c.
Text: as §1, §2, §3

[3] = system: A2780/DDP; conditions: for LCK (gross log10 cell kill) / TVI % Obs.: A2780/DDP s.c.
Text: as §1, §2, §3

[4] = system: HOC18 ovarian carcinoma
Text: as §1, §2, §3

[5] = system: MDA-MB231 bone metastases; conditions: for Incidence of ostelytic lesions (%) / Incidence of ostelytic lesions (mice/total) / Osteolytic area mm^2 ± SD / Osteolytic area square pixel ± SD: 29 days after tumor implantation, cisplatin 3.1 mg/kg iv q7dx3; for Incidence of ostelytic lesions (%) / Incidence of ostelytic lesions (mice/total) / Osteolytic area mm^2 ± SD / Osteolytic area square pixel ± SD / frequency of osteolysis in tibias compared with the control group: ST1926 25 mg/kg po qdx2/wx3w; for frequency of osteolysis in tibias compared with the control group: radiographs 29 days from injection, cisplatin 3.1 iv q7dx3
Method: A human breast cancer cell line, MDA-MB231 was cultured in DMEM supplemented with 10% FCS and 1% penicillin-streptomycin solution in a humidified atmosphere of 5% CO2 in air. Cultured used for intratibial injection were at subconfluency. Cells (1×10^5) were suspended in 0.1 ml of PBS and injected into the tibia of female BALB/c-nu/nu mice with the use of a 27-gauge needle under the anesthesia ip of ketamine and xylazine chloride.
Animals were housed under a light-dark cycle, keeping temperature and humidity constant. Parameters of the animal rooms were assessed as follows: 22±2° C. temperature, 55±10% relative humidity, about 15-20 filtered air changes/hour and 12 hour circadian cycle of artificial light (7 a.m., 7 p.m.). At request, the environmental conditions were monitored and the data are retained in Animal Housing Archives. Drinking water was supplied ad libitum. Each mouse was offered daily a complete pellet diet (GLP 4RF21, Mucedola) throughout the study. The analytical certificates of animal food and water are retained at Sigma-Tau premises. All animals were weighed before starting the experiment and were subdivided into the different dosage groups. Each cage was identified by a paper tag indicating: cage number, group, date of tumor injection, starting date of treatment, name of the test item, dose and route of administration, date of sacrifice.
Incidence of osteolytic lesions and ostelytic area were evaluated 29 days after tumor implantation.

[6] = system: human ovarian carcinoma xenografts; test: Panel of human ovarian carcinoma xenografts, statements over several tumors
Text: as §1, §2

[7] = system: IGROV-1 ovarian carcinoma; test: i.p. growing IGROV-1 tumor, locoregional treatment, survival; format: in vivo
Method: The IGROV-1 ovarian carcinoma line was maintained by serial intraperitoneal passages in healthy mice. Tumor grows as ascites and small solid masses. IGROV-1 ascitic cells were collected and prepared as previously described [Pratesi G., Tortoreto M., Zunino F., Reg. Cancer Treat., 1990; 3:40-43] and 2.5×10^6 cells/mouse (in 0.2 ml of saline) were injected intraperitoneally. Mice developed hemorrhagic and diffuse carcinomatosis and eventually died by 20 to 35 days. Animals were inspected daily and weighed three times a week. The median day of death (median survival time: MST) was considered as the experimental end point.
Experimental groups consisted of seven mice.
The compound was delivered intraperitoneally at a dose of 10 mg/kg, daily for 5 days a week for 4 weeks (qd×5/w×4w), starting the day after cell injection. Drug activity was assessed as increase in life span (ILS) %, i.e. the percentage increase of MST in treated (T) over control (C) mice (T/C×100−100). Mice alive at the end of experiment (day 88) without disease were considered “long term survivors” (LTS).
For statistical comparison, curves reporting the percentage of surviving animals over time were estimated by the Kaplan-Meier product limit method and compared with the log-rank test. The test was two-sided.

[8] = system: FaDu human squamous pharynx carcinoma; test: FaDu squamous pharynx carcinoma s.c. xenograft; format: in vivo, mouse (human xenograft); conditions: ST1926 25 mg/kg oral qdx2/wx3w, carboplatin 40 mg/kg ip q7dx3, combination: carboplatin 1 h before ST1926
Method: The FaDu human squamous pharynx carcinoma cells (3×10^6 tumor cells) were injected sc in the right flank of CD1 nude female mice.

[9] = system: IGROV-1 ovarian carcinoma; conditions: in vivo
[10] = in vivo; conditions: female, athymic Swiss nude, mouse, po
[11] = system: IGROV-1 ovarian carcinoma; test: s.c. growing IGROV-1 tumor, ST1926 doses and schedules
[12] = cisplatin 3.1 mg/kg iv q7dx3, 1st day 2
[13] = HOC18 s.c., cisplatin 3.1 mg/kg iv q7dx3
[14] = HOC18 s.c., cisplatin 4.7 mg/kg iv q7dx3
[15] = ST1926 30 mg/kg oral qdx2/wx3w, 1st day 34
[16] = ST1926 30 mg/kg oral qdx2/wx3w, 1st day 2
[17] = ST1926 45 mg/kg oral qdx2/wx3w, 1st day 2
[18] = HOC18 s.c., ST1926 30 mg/kg oral qdx2/wx3w, 1st day 27
[19] = i.p. growing tumor, 10 mg/kg i.p. qdx5/wx4w

## N.N.[Cl][Pt][Cl] [Cisplatin, cisplatin]
[1]; cisplatin 3.1 mg/kg iv q7dx3
  LCK (gross log10 cell kill): 0.3
  TVI % Obs.: 38%
[1]; cisplatin 4.7 mg/kg iv q7dx3
  LCK (gross log10 cell kill): 0.6
  TVI % Obs.: 57%
[2]; [12]
  LCK (gross log10 cell kill): 0.4
  TVI % Obs.: 40%
[2]; cisplatin 4.7 mg/kg iv q7dx3
  LCK (gross log10 cell kill): 1.2
  TVI % Obs.: 80%
[3]; cisplatin 4.7 mg/kg iv q7dx3
  LCK (gross log10 cell kill): 0
  TVI % Obs.: 15%
[4]; [13]
  LCK (gross log10 cell kill): 1.0
  TVI % Obs.: 41%
[4]; [14]
  LCK (gross log10 cell kill): >>1.7
  TVI % Obs.: 81%
[4]; HOC18 s.c., cisplatin 4.7 mg/kg iv q7dx3, tumors/total
  NED (not evidence of disease at the end of the experiment): 1/10
[4]; HOC18 tumor, dose groups taken together
  complete responses (no evidence of disease at the experiment end), tumors: 1/10
[5]
  Incidence of ostelytic lesions (%): 71%
  Incidence of ostelytic lesions (mice/total): 5/7
  Osteolytic area mm^2 ± SD: 4.6 ± 1.9 mm^2
  Osteolytic area square pixel ± SD: 458 ± 190 square pixel
  frequency of osteolysis in tibias compared with the control group: no significant differences
[6]; optimal doses of cisplatin
  body weight loss: around 20%

## O=C(O)/C=C/c1ccc(-c2ccc(O)c(C34CC5CC(CC(C5)C3)C4)c2)cc1 [ST1926, E-4-(3-(1-adamantyl)-4-hydroxyphenyl)cinnamic acid]
[1]; [15]
  LCK (gross log10 cell kill): 0.3
  TVI % Obs.: 35%
[1]; in vivo, 30 mg/kg
  BWL % (highest): 10%
[2]; [16]
  LCK (gross log10 cell kill): 0.4
  TVI % Obs.: 40%
[2]; in vivo, 30 mg/kg
  BWL % (highest): 5%
[3]; [17]
  LCK (gross log10 cell kill): 0.8
  TVI % Obs.: 41%
[3]; in vivo, 45 mg/kg
  BWL % (highest): 13%
[4]; [18]
  LCK (gross log10 cell kill): 0.4
  TVI % Obs.: 37%
[4]; in vivo, 30 mg/kg
  BWL % (highest): 3%
[7]; i.p. growing IGROV-1, 10 mg/kg qdx5/wx4 weeks
  survival time over control mice: significantly (P<0.01) increased
[7]; [19]
  ILS (increase in life span % in treated over control mice): 91%
  Tox (No. of dead mice/total no. of mice): 0/7
[7]; i.p. growing tumor, 10 mg/kg i.p. qdx5/wx4w, 10 mg/kg
  LTS (long term survivors at the end of experiments, day 88): 2 out of 7 and 2/7
[8]
  TVI: 35%
[5]
  Incidence of ostelytic lesions (%): 63%
  Incidence of ostelytic lesions (mice/total): 5/8
  Osteolytic area mm^2 ± SD: 3.1 ± 1.0 mm^2
  Osteolytic area square pixel ± SD: 310 ± 106 square pixel
  frequency of osteolysis in tibias compared with the control group: no significant differences
[5]; in vivo, po, 25 mg/kg
  tolerability in tumor-bearing mice: well-tolerated
[6]; ST1926 30 or 45 mg/kg per os qdx2/w for 2 or 3 weeks
  TV inhibition, all the tumors investigated: ≤ 50%
[9]; 2 mg/kg
  BWL (body weight loss %, highest): 12%
[9]; 20 mg/kg
  BWL (body weight loss %, highest): 25%
[10]
  MTD: 15 mg/kg
[11]; 15 mg/kg oral qdx2/wx2w
  LCK: 0.1
  TVI %: 39%
[11]; 15 mg/kg oral qdx5/wx3w
  LCK: 0.4
  TVI %: 52%
[11]; 5 × 2 mg/kg oral qdx5/wx4w
  LCK: 0.3
  TVI %: 35%

## N.N.O=C([O-])C1(C(=O)[O-])CCC1.[Pt+2] [carboplatin, reference compound]
[8]
  TVI: 52%
